Mass density data for 4 molecules are collected here from the NIST ThermoML archive (doi:10.1021/je900404r).

± gives the expanded uncertainty stated by the source.

The conditions of this data set: 101 kPa, Liquid, Vibrating tube method.

With `ClC(Cl)C(Cl)Cl` [1,1,2,2-tetrachloroethane], the mass density (usually mass per unit of volume) worked out at 1604.75 ± 0.48 kg/m3 (288.15 K), 1589.18 ± 0.48 kg/m3 (298.15 K), 1573.57 ± 0.48 kg/m3 (308.15 K) and 1557.94 ± 0.47 kg/m3 (318.15 K).
As for `ClCCCl` [1,2-dichloroethane], the mass density (288.15 K) stood at 1260.01 ± 0.43 kg/m3, the mass density (298.15 K) is listed as 1245.48 ± 0.42 kg/m3, the mass density (308.15 K) is listed as 1230.83 ± 0.42 kg/m3 and the mass density (318.15 K) amounted to 1216.04 ± 0.42 kg/m3.
Consider `O=C1CCCCC1` [cyclohexanone], for which the mass density reads like this: (288.15 K) 951.69 ± 0.41 kg/m3; (298.15 K) 942.76 ± 0.41 kg/m3; (308.15 K) 933.8 ± 0.41 kg/m3; (318.15 K) 924.82 ± 0.41 kg/m3.
As to `ClCCCCl` [1,3-dichloropropane], the mass density reads like this: (288.15 K) 1191.93 ± 0.42 kg/m3; (298.15 K) 1179.58 ± 0.42 kg/m3; (308.15 K) 1167.16 ± 0.42 kg/m3; (318.15 K) 1154.67 ± 0.41 kg/m3.
